Experiments:
[1] = system: junglerice (Echinochloa colona); assay: Test E flooded paddy water application; format: in vivo; conditions: Flood, 21 days, scale 0 to 100 (0 no effect, 100 complete control); for Plant response rating, Junglerice: 16 g ai/ha
In short: (§1)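 Greenhouse pots of Tama silt loam with weeds and rice at 2.0–2.5-leaf stage, flooded to 3 cm; compounds applied directly into paddy water, depth maintained. Visual rating versus untreated controls after 21 days, 0 (no effect) to 100 (complete control); 29.5/26.7 °C, 16-h photoperiod.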

[2] = system: bearded (brdd.) sprangletop (Leptochloa fusca ssp. fascicularis); assay: Test E flooded paddy water application; format: in vivo; conditions: Flood, 21 days, scale 0 to 100 (0 no effect, 100 complete control); for Plant response rating, Sprangletop, Brdd.: 16 g ai/ha
In short: as §1

[3] = system: barnyardgrass (Echinochloa crus-galli); assay: Test E flooded paddy water application; format: in vivo; conditions: Flood, 21 days, scale 0 to 100 (0 no effect, 100 complete control); for Plant response rating, Barnyardgrass: 16 g ai/ha
In short: as §1

[4] = system: rice flatsedge (Cyperus iria); assay: Test E flooded paddy water application; format: in vivo; conditions: Flood, 21 days, scale 0 to 100 (0 no effect, 100 complete control); for Plant response rating, Flatsedge, Rice: 16 g ai/ha
In short: as §1

[5] = system: smallflower umbrella sedge (Cyperus difformis); assay: Test E flooded paddy water application; format: in vivo; conditions: Flood, 21 days, scale 0 to 100 (0 no effect, 100 complete control); for Plant response rating, Sedge, Umbrella: 16 g ai/ha
In short: as §1

[6] = system: late watergrass (Echinochloa oryzicola); assay: Test E flooded paddy water application; format: in vivo; conditions: Flood, 21 days, scale 0 to 100 (0 no effect, 100 complete control); for Plant response rating, Watergrass, Late: 16 g ai/ha
In short: as §1

Structure (SMILES)	melting point	Junglerice plant response rating ([1]; 32 g ai/ha)	Junglerice plant response rating ([1]; 64 g ai/ha)	Junglerice plant response rating ([1]; 125 g ai/ha)	Junglerice plant response rating ([1]; 250 g ai/ha)	Plant response rating, Junglerice [1]	Sprangletop, Brdd. plant response rating ([2]; 32 g ai/ha)	Sprangletop, Brdd. plant response rating ([2]; 64 g ai/ha)	Sprangletop, Brdd. plant response rating ([2]; 125 g ai/ha)	Sprangletop, Brdd. plant response rating ([2]; 250 g ai/ha)	Plant response rating, Sprangletop, Brdd. [2]	Flatsedge, Rice plant response rating ([4]; 32 g ai/ha)	Flatsedge, Rice plant response rating ([4]; 64 g ai/ha)	Flatsedge, Rice plant response rating ([4]; 125 g ai/ha)	Flatsedge, Rice plant response rating ([4]; 250 g ai/ha)	Plant response rating, Flatsedge, Rice [4]	Sedge, Umbrella plant response rating ([5]; 32 g ai/ha)	Sedge, Umbrella plant response rating ([5]; 64 g ai/ha)	Sedge, Umbrella plant response rating ([5]; 125 g ai/ha)	Sedge, Umbrella plant response rating ([5]; 250 g ai/ha)	also measured
CCOC(=O)c1nc(-c2ccc(Br)cc2)nc(N)c1Cl [Compound 94, ethyl 6-amino-2-(4-bromophenyl)-5-chloro-4-pyrimidinecarboxylate]	136 to 137 °C	0	0	0	0	0	0	0	20	40	0	100	100	100	100	100	100	100	100	100	Barnyardgrass plant response rating ([3]; 32 g ai/ha): 0; Barnyardgrass plant response rating ([3]; 64 g ai/ha): 0; Barnyardgrass plant response rating ([3]; 125 g ai/ha): 0; Barnyardgrass plant response rating ([3]; 250 g ai/ha): 0; Plant response rating, Barnyardgrass [3]: 0; Plant response rating, Sedge, Umbrella [5]: 100; Watergrass, Late plant response rating ([6]; 32 g ai/ha): 0; Watergrass, Late plant response rating ([6]; 64 g ai/ha): 0; Watergrass, Late plant response rating ([6]; 125 g ai/ha): 0; Watergrass, Late plant response rating ([6]; 250 g ai/ha): 0; Plant response rating, Watergrass, Late [6]: 0
Nc1nc(-c2ccc(Br)cc2)nc(C(=O)O)c1Cl [Compound 95, 6-amino-2-(4-bromophenyl)-5-chloro-4-pyrimidinecarboxylic acid]	157 to 158 °C (dec.)	0	0	0	0	0	0	0	0	0	0	0	0	0	0	0	95	95	95	95	Barnyardgrass plant response rating ([3]; 32 g ai/ha): 0; Barnyardgrass plant response rating ([3]; 64 g ai/ha): 0; Barnyardgrass plant response rating ([3]; 125 g ai/ha): 0; Barnyardgrass plant response rating ([3]; 250 g ai/ha): 0; Plant response rating, Barnyardgrass [3]: 0; Plant response rating, Sedge, Umbrella [5]: 0; Watergrass, Late plant response rating ([6]; 32 g ai/ha): 0; Watergrass, Late plant response rating ([6]; 64 g ai/ha): 0; Watergrass, Late plant response rating ([6]; 125 g ai/ha): 0; Watergrass, Late plant response rating ([6]; 250 g ai/ha): 0; Plant response rating, Watergrass, Late [6]: 0
COC(=O)c1nc(-c2ccc(Cl)cc2)nc(N)c1Cl [Compound 58, methyl 6-amino-5-chloro-2-(4-chlorophenyl)-4-pyrimidinecarboxylate]	215 to 218 °C	0	0	0	0	0	40	60	60	60	20	100	100	100	100	40	95	95	95	100	Plant response rating, Sedge, Umbrella [5]: 65; Watergrass, Late plant response rating ([6]; 32 g ai/ha): 0; Watergrass, Late plant response rating ([6]; 64 g ai/ha): 0; Watergrass, Late plant response rating ([6]; 125 g ai/ha): 0; Watergrass, Late plant response rating ([6]; 250 g ai/ha): 0; Plant response rating, Watergrass, Late [6]: 0
COC(=O)c1nc(-c2ccc(Br)cc2)nc(N)c1Cl [Compound 96, methyl 6-amino-2-(4-bromophenyl)-5-chloro-4-pyrimidinecarboxylate]	223 to 224 °C	0	0	0	0	0	0	0	0	0	0	100	100	100	100	100	100	100	100	100	Barnyardgrass plant response rating ([3]; 32 g ai/ha): 0; Barnyardgrass plant response rating ([3]; 64 g ai/ha): 0; Barnyardgrass plant response rating ([3]; 125 g ai/ha): 0; Barnyardgrass plant response rating ([3]; 250 g ai/ha): 0; Plant response rating, Barnyardgrass [3]: 0; Plant response rating, Sedge, Umbrella [5]: 100; Watergrass, Late plant response rating ([6]; 32 g ai/ha): 0; Watergrass, Late plant response rating ([6]; 64 g ai/ha): 0; Watergrass, Late plant response rating ([6]; 125 g ai/ha): 0; Watergrass, Late plant response rating ([6]; 250 g ai/ha): 0; Plant response rating, Watergrass, Late [6]: 0

Source: patent US8802597B2, “Herbicidal pyrimidines” (E I du Pont de Nemours and Company, priority 2003, dated 2014)
